Measured values from article PMC9099121, “Population pharmacokinetic and exposure‐response analyses from ALTA‐1L: Model‐based analyses supporting the brigatinib dose in ALK‐positive NSCLC” (Clinical and Translational Science, 2022).

How the values were obtained:
[1] = Exposure-safety analysis and AE incidence, ALTA-1L; assay type: in vivo, human
From the text: […] AEs of interest selected for analysis included eight grade two or higher AEs (increased alanine aminotransferase [ALT], AST, or amylase; hyperglycemia; hypertension; bradycardia; rash; and pulmonary events [pneumonitis or ILD]), five grade three or higher AEs (increased CPK, AST, ALT, amylase, and lipase), and a composite grade three or higher AE end point that included grade three or higher CPK, AST, ALT, amylase, or lipase elevations; hyperglycemia; hypertension; bradycardia; rash; and pulmonary events.
AEs were included in the analysis if they occurred any time between the first day of brigatinib dosing and 30 days after the last dose. AEs were defined according to the National Cancer Institute Common Toxicity Criteria for Adverse Events version 4.03. The relationship between time‐averaged exposure and AE probability was examined using the same logistic regression models described for the exposure–clinical response analyses. Probability of an AE was plotted against exposure, with observed probabilities calculated by exposure quartiles.
The relationship between brigatinib exposure and time to first brigatinib dose reduction was also explored. A KM plot of time to first brigatinib dose reduction was generated, with survival curves binned by brigatinib exposure quartiles, where exposure was defined as the time‐averaged AUC to the first occurrence of dose reduction.

[2] = Population PK model post hoc estimates, ALTA (second-line); assay type: in vivo, human; conditions: geometric mean (5th and 95th percentiles); ALTA n = 201
From the text: (§1) The previously developed population PK model[11] was used for population PK analyses of ALTA‐1L data. The previous analysis provided a robust and comprehensive characterization of brigatinib PK and sources of variability. Importantly, the previous analysis included 202 patients with ALK+ NSCLC that progressed on other ALK TKIs, representing a similar patient population to patients receiving first‐line brigatinib in ALTA‐1L. These considerations supported a Bayesian re‐estimation approach for deriving individual brigatinib PK parameters in ALTA‐1L using the previously reported model, and the model was applied without modification. In brief, the population PK model described brigatinib PK using a three‐compartment model with linear distribution and elimination kinetics and first‐order absorption preceded by a set of transit compartments.[11] The model included albumin concentration as a covariate on apparent oral clearance (CL/F). Bayesian re‐estimation was performed by setting initial model conditions to values of fixed effects and random effect variances previously estimated,[11] allowing for estimation of individual PK parameters based on the PK observations in the ALTA‐1L dataset.
(§2) Diagnostic plots were created to compare brigatinib PK in patients in ALTA‐1L (first‐line setting) and ALTA (second‐line setting). […] In exploratory analyses, relationships between covariates of interest and model‐based exposure estimates were evaluated using linear regression models with each covariate as a predictor.

[3] = Population PK model (Bayesian re-estimation), brigatinib arm of ALTA-1L (first-line); assay type: in vivo, human; conditions: geometric mean (5th and 95th percentiles)
Procedure: The population PK and exposure‐response analyses evaluated data from the brigatinib arm (180 mg q.d. with a 7‐day lead‐in at 90 mg q.d.) of the ALTA‐1L trial (second interim analysis, data cutoff date: June 28, 2019).[8] […] Blood samples for measurement of brigatinib plasma concentrations were obtained predose on day 1 of cycle one (28 day/cycle); predose and 1, 4, and 6 to 8 h postdose on day 1 of cycle two; and predose and any time between 1 and 8 h postdose on day 1 of cycles three, four, and five. Plasma samples were analyzed for brigatinib concentrations using a validated liquid chromatography/tandem mass spectrometry assay with a lower limit of quantification of 5 ng/mL. Efficacy assessments were based on computed tomography or magnetic resonance imaging performed at screening, every 8 weeks through cycle 14, and then every 12 weeks through treatment discontinuation.[8] Safety data were collected as they were reported.
as §1, §2

[4] = tested on: advanced ALK inhibitor-naive ALK+ NSCLC; conditions: cited from earlier work
[5] = Linear regression of covariates versus post hoc steady-state AUC, ALTA-1L; assay type: in vivo, human; conditions: for Percentage change in steady-state AUC relative to value at median covariate [95% CI] / Percentage change in median AUC (with 95% CI) relative to the most common reference category: 180 mg once daily
Procedure: as §2

[6] = tested on: advanced ALK+ NSCLC that progressed on crizotinib; conditions: ALTA, cited from earlier work
ALK+ NSCLC = test: Exposure-PFS analysis (Kaplan-Meier, Cox PH models), ALTA-1L; assay type: in vivo, human
Procedure: Model‐based estimates of CL/F and actual dosing history were used to derive exposure metrics of interest. Several exposure metrics were considered, including both static and dynamic area under the concentration‐time curve (AUC) estimates (Methods S1).
First, the relationship between PFS and two static exposure metrics, time‐averaged AUC between the last two disease assessment scans preceding progression or censoring and time‐averaged AUC until progression, was evaluated. These exposure‐PFS relationships were characterized by a proportional hazard (PH) model relating exposure to the hazard of PFS. The hazard function was expressed as: (1) λt=λ0te^β^TXi where λ 0 (t) is the baseline hazard function and Xi is a vector of predictor variables for an individual patient. The parameter vector β was estimated by maximum partial likelihood and captures the effect of exposure and/or additional covariates on the hazard of disease progression.
Next, the relationship between PFS and two dynamic exposure metrics, daily time‐varying AUC between the last two disease assessment scans preceding progression or censoring and daily time‐varying AUC until progression, was evaluated. These analyses used a time‐dependent covariate Cox PH model relating time‐dependent exposure to PFS. The hazard function was expressed as: (2) λt=λ0te^β1×AUCDt+β^TXi where model parameters were as above in Equation 1, except that exposure (AUCDt ) was a time‐dependent predictor rather than a constant for each patient.
For each static exposure‐PFS analysis, Kaplan‐Meier (KM) plots of PFS probability over time were generated and stratified by brigatinib exposure quartiles. Crizotinib PFS curves were overlaid for comparison.
Dynamic daily time-averaged AUC between successive disease assessment scans preceding the event or censoring for PFS, obtained as the average of daily AUCs within each scan interval.
Time averaged AUC until PFS= Cumulative dose to progressionOral brigatinib clearance/ (days to progression)

[7] = in ALTA and ALTA-1L; cited from earlier work
[8] = 180 mg q.d. with 7-day lead-in at 90 mg q.d.
[9] = patients with measurable baseline brain metastases

Compound: COc1cc(N2CCC(N3CCN(C)CC3)CC2)ccc1Nc1ncc(Cl)c(Nc2ccccc2P(C)(C)=O)n1 [brigatinib]
- Incidence of ALT increase, Grade ≥2 ([1]; n = 123): 18 (14.6) n (%)
- Incidence of ALT increase, Grade ≥3 ([1]; n = 123): 6 (4.9) n (%)
- Incidence of AST increase, Grade ≥2 ([1]; n = 123): 10 (8.1) n (%)
- Incidence of AST increase, Grade ≥3 ([1]; n = 123): 5 (4.1) n (%)
- Incidence of Amylase increase, Grade ≥2 ([1]; n = 123): 24 (19.5) n (%)
- Incidence of Amylase increase, Grade ≥3 ([1]; n = 123): 10 (8.1) n (%)
- Incidence of Bradycardia, Grade ≥2 ([1]; n = 123): 2 (1.6) n (%)
- Incidence of CPK increase, Grade ≥3 ([1]; n = 123): 32 (26.0) n (%)
- Incidence of Hyperglycemia, Grade ≥2 ([1]; n = 123): 2 (1.6) n (%)
- Incidence of Hypertension, Grade ≥2 ([1]; n = 123): 38 (30.9) n (%)
- Incidence of Lipase increase, Grade ≥3 ([1]; n = 123): 22 (17.9) n (%)
- Incidence of Pulmonary AEs (pneumonitis and interstitial lung disease), Grade ≥2 ([1]; n = 123): 2 (1.6) n (%)
- Incidence of Rash, Grade ≥2 ([1]; n = 123): 15 (12.2) n (%)
- Incidence of Any AE, Grade ≥3 ([1]; n = 123, composite of CPK, AST, ALT, amylase, lipase, hyperglycemia, hypertension, bradycardia, rash, pulmonary events): 64 (52.0) n (%)
- Odds ratio, grade ≥3 lipase increase per 1 µg·h/mL/day increase in exposure ([1]; time-averaged AUC across days 8 to 14 of cycle one, 95% CI: 1.00–1.10, p = 0.039): 1.05
- Odds ratio, grade ≥2 amylase increase per 1 µg·h/mL/day increase in exposure ([1]; time-averaged AUC across days 8 to 14 of cycle one, 95% CI: 1.01–1.11, p = 0.016): 1.06
- Estimated odds ratio, grade ≥3 lipase increase versus exposure ([1]; time-averaged AUC to first occurrence of an event, 95% CI: 0.99–1.07, p = 0.146): 1.03
- Estimated odds ratio, grade ≥2 amylase increase versus exposure ([1]; time-averaged AUC to first occurrence of an event, p = 0.094): 1.04 [0.99–1.09]
- Effect of exposure on time to first brigatinib dose reduction (KM plots by exposure quartiles) ([1]; time-averaged AUC to the first occurrence of dose reduction): did not show a discernible effect
- Albumin covariate effect on CL/F [2]: 0.939 (0.758, 1.09)
- CL/F [2]: 9.90 (4.06, 23.0) L/h
- Mean transit time [2]: 0.998 (0.584, 1.92) h
- Q2/F [2]: 12.6 (12.6, 12.6) L/h
- Q3/F [2]: 2.67 (2.67, 2.67) L/h
- V1/F [2]: 199 (86.0, 468) L
- V2/F [2]: 124 (78.3, 259) L
- V3/F [2]: 78.5 (78.5, 78.5) L
- Albumin covariate effect on CL/F ([3]; ALTA-1L n = 123): 1.03 (0.874, 1.13)
- CL/F ([3]; ALTA-1L n = 123): 8.45 (4.04, 17.8) L/h
- Mean transit time ([3]; ALTA-1L n = 123): 1.01 (0.538, 2.36) h
- Q2/F ([3]; ALTA-1L n = 123): 12.6 (12.6, 12.6) L/h
- Q3/F ([3]; ALTA-1L n = 123): 2.67 (2.67, 2.67) L/h
- V1/F ([3]; ALTA-1L n = 123): 160 (69.0, 302) L
- V2/F ([3]; ALTA-1L n = 123): 118 (46.5, 283) L
- V3/F ([3]; ALTA-1L n = 123): 78.5 (78.5, 78.5) L
- AUC ([3]; human, plasma, oral, maintenance dose 180 mg q.d., ALTA-1L, read-out: Daily steady-state post hoc AUC): 21300 ng·h/mL
- Hazard ratio versus crizotinib (superiority, PFS) ([4]; ALTA-1L first interim analysis, 95% CI: 0.33–0.74, p < 0.001): 0.49
- Early onset pulmonary events, patients ([4]; ALTA-1L): 3%
- Median PFS ([4]; ALTA-1L): ≥ 2 years
- Median time to first brigatinib dose reduction ([4]; ALTA-1L): ~ 2 years
- 2-year intracranial PFS rate ([4]; ALTA-1L, patients with any baseline brain metastases): 48%
- iORR ([4]; second ALTA-1L interim analysis, patients with measurable baseline brain metastases): 78%
- Percentage change in steady-state AUC relative to value at median covariate [95% CI] ([5]; ALT, 5th percentile): 0 [-6; 4] %
- Percentage change in steady-state AUC relative to value at median covariate [95% CI] ([5]; ALT, 95th percentile): 2 [-21; 28] %
- Percentage change in steady-state AUC relative to value at median covariate [95% CI] ([5]; AST, 5th percentile): -4 [-9; 4] %
- Percentage change in steady-state AUC relative to value at median covariate [95% CI] ([5]; AST, 95th percentile): 11 [-11; 38] %
- Percentage change in steady-state AUC relative to value at median covariate [95% CI] ([5]; age, 5th percentile): -26 [-39; -15] %
- Percentage change in steady-state AUC relative to value at median covariate [95% CI] ([5]; age, 95th percentile): 27 [15; 43] %
- Percentage change in steady-state AUC relative to value at median covariate [95% CI] ([5]; albumin at baseline, 5th percentile): 3 [1; 14] %
- Percentage change in steady-state AUC relative to value at median covariate [95% CI] ([5]; albumin at baseline, 95th percentile): -2 [-5; 0] %
- Percentage change in steady-state AUC relative to value at median covariate [95% CI] ([5]; body weight, 5th percentile): 12 [3; 21] %
- Percentage change in steady-state AUC relative to value at median covariate [95% CI] ([5]; body weight, 95th percentile): -18 [-31; -5] %
- Percentage change in steady-state AUC relative to value at median covariate [95% CI] ([5]; eGFR, 5th percentile): 2 [-9; 14] %
- Percentage change in steady-state AUC relative to value at median covariate [95% CI] ([5]; eGFR, 95th percentile): -3 [-22; 15] %
- Percentage change in median AUC (with 95% CI) relative to the most common reference category ([5]; race: Asian (n = 53) vs White (n = 68)): -6 [-21; 12] %
- Percentage change in median AUC (with 95% CI) relative to the most common reference category ([5]; sex: Female (n = 60) vs Male (n = 63)): 15 [-3; 37] %
- Percentage change in steady-state AUC relative to value at median covariate [95% CI] ([5]; total bilirubin, 5th percentile): -11 [-24; 8] %
- Percentage change in steady-state AUC relative to value at median covariate [95% CI] ([5]; total bilirubin, 95th percentile): 17 [-12; 41] %
- Magnitude of relative difference in predicted AUC for each stratum compared with the most common stratum ([5]; categorical covariates (sex and race), ALTA-1L): less than 20%
- Magnitude of relative difference in predicted AUC at 5th and 95th percentiles relative to median of covariate ([5]; continuous covariates (age, eGFR, body weight, total bilirubin, AST, ALT), ALTA-1L): below 30%
- Variability in post hoc AUC, 5th and 95th percentiles relative to predicted AUC for a typical patient ([5]; overall ALTA-1L population, typical patient with albumin 41 g/L): −60% to +263
- IRC-assessed confirmed objective response rate (ORR) [6, 8]: 56%
- Median IRC-assessed progression-free survival (PFS) [6, 8]: 16.7 months
- IRC-assessed intracranial ORR (iORR) [6, 9]: 67%
- Median duration of (intracranial) response [6, 9]: 16.6 months
- Cox PH ratio for PFS versus exposure (ALK+ NSCLC; dynamic metric: daily time-averaged AUC between successive disease assessments preceding PFS event or censoring, p = 0.08): 1.02
- Cox PH ratio for PFS versus exposure (ALK+ NSCLC; dynamic metric: daily time-varying AUC preceding progression or censoring, p = 0.69): 1.01 [0.98–1.03]
- HR [95% CI] of disease progression or death per one-unit increase in exposure (Cox PH model) (ALK+ NSCLC; static metric: time-averaged AUC between the last two disease assessments, p = 0.01): 1.03 [1.01–1.05]
- Incidence of any-grade AEs of elevated amylase [7]: 15% to 18
